Assay results published in PubChem BioAssay (NCI).
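Briefly, cells in 96-well plates were exposed to five compound concentrations for 48 h, and endpoints were estimated by linear interpolation. GI50 is the concentration that inhibits growth by half. TGI marks complete inhibition of growth.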

Tests used:
Assay in all cases: NCI-60 cell line screen, 48 h
SNB-19 CNS = tested on: SNB-19 CNS
HOP-62 NSCLC = tested on: HOP-62 NSCLC
BT-549 breast = tested on: BT-549 breast
MDA-MB-231 breast = tested on: MDA-MB-231 breast
RXF 393 renal = tested on: RXF 393 renal
M14 melanoma = tested on: M14 melanoma
UACC-257 melanoma = tested on: UACC-257 melanoma
HOP-92 NSCLC = tested on: HOP-92 NSCLC
A498 renal = tested on: A498 renal
HCC-2998 colon = tested on: HCC-2998 colon

SMILES: CC(C)[NH-].CC(C)[NH-].O.O.[Cl][Pt+2][Cl]
- GI50 (SNB-19 CNS): 70.9 µM
- TGI (SNB-19 CNS): 314 µM
- GI50 (HOP-62 NSCLC): 55.8 µM
- TGI (HOP-62 NSCLC): 194 µM
- GI50 (BT-549 breast): 56 µM
- TGI (BT-549 breast): 266 µM
- GI50 (MDA-MB-231 breast): 63.8 µM
- TGI (MDA-MB-231 breast): 254 µM
- GI50 (RXF 393 renal): 26.6 µM
- TGI (RXF 393 renal): 137 µM
- GI50 (M14 melanoma): 37.5 µM
- TGI (M14 melanoma): 139 µM
- GI50 (UACC-257 melanoma): 87.4 µM
- TGI (UACC-257 melanoma): 279 µM
- GI50 (HOP-92 NSCLC): 22.3 µM
- TGI (HOP-92 NSCLC): 70.8 µM
- GI50 (A498 renal): 150 µM
- TGI (A498 renal): 358 µM
- GI50 (HCC-2998 colon): 87.9 µM
- TGI (HCC-2998 colon): 220 µM
